Read-outs that look alike come from different tables or passages of the source.
Molecular target: T1, CAT-1 (carnitine acyltransferase 1) (Rattus norvegicus, UniProt Q63704)
T1 construct: This preparation is used as the isolated mitochondrial preparation; from tissue; host or cells: rat heart (atria removed), isolated mitochondria
T1 sequence (Q63704 1-772): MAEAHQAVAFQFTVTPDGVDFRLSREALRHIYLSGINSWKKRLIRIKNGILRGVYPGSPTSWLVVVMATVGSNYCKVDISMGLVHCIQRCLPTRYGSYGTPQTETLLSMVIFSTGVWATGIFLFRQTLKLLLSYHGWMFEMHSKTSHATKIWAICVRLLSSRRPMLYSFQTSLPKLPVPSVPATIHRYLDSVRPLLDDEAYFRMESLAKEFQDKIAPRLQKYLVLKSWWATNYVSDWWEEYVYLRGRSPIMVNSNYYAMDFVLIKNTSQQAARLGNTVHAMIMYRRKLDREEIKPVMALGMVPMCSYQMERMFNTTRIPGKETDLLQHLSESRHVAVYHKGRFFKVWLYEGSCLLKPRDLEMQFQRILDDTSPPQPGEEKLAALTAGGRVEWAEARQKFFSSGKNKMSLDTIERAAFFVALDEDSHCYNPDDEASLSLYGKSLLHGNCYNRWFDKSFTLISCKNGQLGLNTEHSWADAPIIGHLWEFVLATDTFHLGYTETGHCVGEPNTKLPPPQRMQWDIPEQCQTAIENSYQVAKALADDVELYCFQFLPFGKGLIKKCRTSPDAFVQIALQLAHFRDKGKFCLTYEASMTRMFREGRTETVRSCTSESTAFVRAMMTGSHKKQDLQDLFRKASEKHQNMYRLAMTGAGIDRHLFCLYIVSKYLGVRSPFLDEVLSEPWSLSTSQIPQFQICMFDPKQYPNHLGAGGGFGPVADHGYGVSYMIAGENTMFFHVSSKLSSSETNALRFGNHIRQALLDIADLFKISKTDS
Test: Primary Screen--Inhibition of CAT-1 in isolated mitochondria
Format: biochemical
Design: inhibition: dose or concentration left out as unconfirmed

[1] = rat heart mitochondria, reduction of palmitoyl carnitine formation by 50%, read-out: Primary Screen IC50

Method: Primary Screen--Inhibitors of CAT-1 in 1Mitochondria
(a). Preparation of Mitochondria
The heart is rapidly removed from an anesthetized rat (sodium pentabarbitol) and placed in ice-cold homogenization buffer (sucrose, 250 mM; Tris, 10 mM; EDTA, 1 mM; BSA, 0.01%; pH=7.4). The atria and extraneous tissue are removed and the remainder is chopped with scissors. The pieces are rinsed in homogenization buffer before being homogenized in 10 mL of the same buffer for 5-7 seconds. The homogenate is then diluted with homogenization buffer (40 total volume) and centrifuged at 200 g for 20 minutes. The supernatant is withdrawn and centrifuged at 7000 g for 20 minutes and the resulting pellet is isolated, resuspended in 40 mL of homogenization buffer and centrifuged once more at 7000 g for 20 minutes. The isolated pellet is resuspended in 10 mL of homogenization buffer and stored at 4° C. until use. This preparation is used as the isolated mitochondrial preparation.
(b). Inhibition of CAT-1 assay
Isolated mitochondria (20 μL) are incubated with 60 μL of Tris/sucrose buffer (sucrose, 500 mM; Tris, 20 mM; KCl, 100 mM; EDTA, 2 mM; pH=7.0 plus 83 μM palmitoyl CoA, and BSA, 0.8 mg/mL and 10^-4 to 10^-10 M of the drug to be tested. After 10 minutes at 30° C., the reaction is started by addition of 10 μL of ^3 H-carnitine (final concentration=250 μM). After 5 minutes, the reaction is terminated by the addition of ice cold 70% perchloric acid (PCA). The precipitated solids so formed, containing the insoluble product of the enzyme palmitoyl carnitine, are captured on filter paper. The filter paper is washed with 7% PCA, then dried and placed in scintillation vials with 10 mL of scintillant (Aquasol, New England Nuclear) and counted for radioactivity. The rate of the reaction is assessed by the difference in radioactivity between zero time and five minutes in the absence of test compound. The ability of test compounds at selected concentrations to inhibit CAT-1 is determined by their ability to reduce the formation of the radioactive product. The IC50 of the test compound is the concentration of test compound that reduces the formation of radioactive product by 50%.

Structure (SMILES)	IC50 [1] [nM]	further results
O=C(O)C(=O)c1ccc(OCCOc2ccc(F)cc2)cc1 [Example 43, 4-[[2-(4-fluorophenoxy)ethyl]oxy]-alpha-oxobenzeneacetic acid]	800	
O=C(O)C(=O)c1ccc(OCC(=O)c2ccccc2-c2ccccc2)cc1 [Example 288, 4-[2-[[1,1'-biphenyl]-2-yl]-2-oxoethoxy]-alpha-oxobenzeneacetic acid]	1400	
O=C(O)/C(=N/OCc1ccccc1)c1ccc(OCCOc2ccc3ccccc3c2)s1 [Example 315, (Z)-5-[2-(2-naphthalenyloxy)ethoxy]-alpha-[(phenylmethoxy)imino]-2-thiopheneacetic acid]	140	
O=C(O)C(=O)c1ccc([S+]([O-])CCOc2ccc3ccccc3c2)cc1 (racemic) [Example 151, rac.-4-[[2-(2-naphthalenyloxy)ethyl]sulfinyl]-alpha-oxobenzeneacetic acid]	5500	
O=C(O)C(=O)c1ccc(OCCOc2cc3ccccc3cc2OCCOc2ccccc2)cc1 [Example 116, alpha-oxo-4-[[2-[3-(2-phenoxyethoxy)-2-naphthalenyloxy]ethyl]oxy]benzeneacetic acid]	650	
O=C(O)C(=O)c1ccc(OCc2ccc3ccccc3n2)cc1 [Example 159, 4-[(2-quinolinyl)methoxy]-alpha-oxo-benzeneacetic acid]	5100	
O=C(O)C(=O)c1ccc(OCc2ccc3ccccc3c2)cc1 [Example 155, 4-[(2-naphthalenyl)methoxy]-alpha-oxobenzeneacetic acid]	220	
O=C(O)C(=O)c1ccc(OCCOc2ccc3c(c2)CCCC3)cc1 [Example 112, alpha-oxo-4-[[2-(5,6,7,8-tetrahydro-2-naphthalenyloxy)ethyl]oxy]benzeneacetic acid]	200	
CC(C)(C)c1cc(C(=O)CCCCOc2ccc(C(=O)C(=O)O)cc2)cc(C(C)(C)C)c1O [Example 266, 4-[5-[3,5-bis(1,1-dimethylethyl)-4-hydroxyphenyl]-5-oxopentyloxy]-alpha-oxobenzeneacetic acid]		inhibition at 10 µM (@ 10 μM): 48%
CC1(C)OCC(COC(=O)C(=O)c2ccc(OCCOc3ccc4ccccc4c3)cc2)O1 (racemic) [Example 169, rac.-4-[[2-(2-naphthalenyloxy)ethyl]oxy]-alpha-oxobenzeneacetic acid (2,2-dimethyl-1,3-dioxolan-4-yl)methyl ester]	3500	
COc1cc(OCCOc2ccc3ccccc3c2)cc(OC)c1C(=O)C(=O)O [Example 195, 2,6-dimethoxy-4-[2-(2-naphthalenyloxy)ethoxy]-alpha-oxobenzeneacetic acid]		inhibition: 24%
O=C(O)C(=O)c1ccc(OCC#Cc2ccccc2)cc1 [Example 35, alpha-oxo-4-[(3-phenyl-2-propynyl)oxy]benzeneacetic acid]	400	
O=C(O)C(=O)c1ccc(OCC(=O)N2CCc3ccccc3C2)cc1 [Example 251, 4-[2-oxo-2-(1,2,3,4-tetrahydro-2-isoquinolinyl)ethoxy]-alpha-oxobenzeneacetic acid]	400	
O=C(O)C(=O)c1ccc(OCCCOc2ccccc2)cc1 [Example 69, alpha-oxo-4-[[(3-phenoxy)propyl]oxy]benzeneacetic acid]	2000	
Cc1nnc2n1-c1sc(CCCOc3ccc(C(=O)C(=O)O)cc3)cc1C(c1ccccc1Cl)=NC2 [Example 296]		IC50: 10000 nM
O=C(O)C(=O)c1ccc(OCCCCc2ccncc2)cc1 [Example 125, alpha-oxo-4-[4-(4-pyridinyl)butoxy]benzeneacetic acid]	2000	
O=C(O)C(=O)c1ccc(OCCOc2ccc(C(=O)C(=O)O)cc2)cc1 [Example 55]	6000	
O=C(O)C(=O)c1ccc(OCc2ccccc2)cc1 [Example 19, 4-[(phenylmethyl)oxy]-alpha-oxobenzeneacetic acid]	90000	
COc1ccc(OCCOc2ccc(C(=O)C(=O)O)cc2)cc1OC [Example 63, 4-[[2-(3,4-dimethoxyphenoxy)ethyl]oxy]-alpha-oxobenzeneacetic acid]	3000	
O=C(O)C(=O)c1ccc(OCCOc2cccc(F)c2)cc1 [Example 41, 4-[[2-(3-fluorophenoxy)ethyl]oxy]-alpha-oxobenzeneacetic acid]	1000	
O=C(O)C(=O)c1ccc(OCCOc2ccnc3ccccc23)cc1 [Example 131, alpha-oxo-4-[[2-(4-quinolyloxy)ethyl]oxy]benzeneacetic acid]	960	

Structure (SMILES)	IC50 [1] [nM]	further results
Cc1cc(OCCOc2ccc3ccccc3c2)ccc1C(=O)C(=O)O [Example 183, 2-methyl-4-[2-(2-naphthalenyloxy)ethoxy]-alpha-oxobenzeneacetic acid (4:1) hydrate]	4700	
O=C(O)C(=O)c1ccc(OCCOCCOc2ccccc2)cc1 [Example 77, 4-[[2-[[2-(phenoxy)ethyl]oxy]ethyl]oxy]-alpha-oxobenzeneacetic acid]	2000	
O=C(O)C(=O)c1ccc(OCCOc2ccc(C(F)(F)F)cc2)cc1 [Example 51, alpha-oxo-4-[[2-(4-trifluoromethylphenoxy)ethyl]oxy]benzeneacetic acid]	800	
O=C(O)C(=O)c1ccc(CCCNC(=O)c2ccc3ccccc3c2)cc1 [Example 147, 4-[3-[[(2-naphthalenyl)carbonyl]amino]propyl]-alpha-oxobenzeneacetic acid]	6200	
CCCc1c(OCCCOc2ccc(C(=O)C(=O)O)cc2)ccc(C(=O)O)c1O [Example 269, 4-[3-[4-carboxy-3-hydroxy-2-propylphenoxy)propoxy]-alpha-oxobenzeneacetic acid]	1800	
O=C(O)C(=O)c1cc(F)c(OCCOc2ccc3ccccc3c2)c(F)c1 [Example 203, 3,5-difluoro-4-[2-(2-naphthalenyloxy)ethoxy]-alpha-oxobenzeneacetic acid]		inhibition: 37%
O=C(O)C(=O)c1ccc(OCOc2ccccc2)cc1 [Example 67, alpha-oxo-4-[[(phenoxy)methyl]oxy]benzeneacetic acid]	15000	
O=C(O)C(=O)c1ccc(SCCOc2ccc3ccccc3c2)cc1 [Example 149, 4-[[2-(2-naphthalenyloxy)ethyl]thio]-alpha-oxobenzeneacetic acid]	80	
O=C(O)C(F)(F)c1ccc(OCCOc2ccccc2)cc1 [Example 11, alpha, alpha-difluoro-4-[[2-(phenoxy)ethyl]oxy]benzeneacetic acid]	18000	
COCCOc1ccc(C(=O)C(=O)O)cc1 [Example 97, 4-[[2-(methoxy)ethyl]oxy]-alphaoxobenzeneacetic acid]	30000	
COc1ccc(OCCOc2ccc(C(=O)C(=O)O)cc2)cc1 [Example 61, 4-[[2-(4-methoxyphenoxy)ethyl]oxy]-alpha-oxobenzeneacetic acid]	2000	
Cc1nnc2n1-c1sc(C#CCOc3ccc(C(=O)C(=O)O)cc3)cc1C(c1ccccc1Cl)=NC2 [Example 294, 4-[3-[4-(2-chlorophenyl)-9-methyl-6H-thieno[3,2-f][1,2,4]triazolo[4,3-a][1,4]diazepin-2-yl]-2-propynyloxy]-alpha-oxobenzeneacetic acid]		IC50: 300 nM
O=C(O)C(=O)c1ccc(OC/C=C/c2ccccc2)cc1 [Example 31, (E)-alpha-oxo-4-[(3-phenyl-2-propenyl)oxy]benzeneacetic acid]	100	
NS(=O)(=O)c1ccc(OCCOc2ccc(C(=O)C(=O)O)cc2)cc1 [Example 53, 4-[[2-[4-(aminosulfonyl)phenoxy]ethyl]oxy]-alpha-oxobenzeneacetic acid]	4000	
CC(=O)c1ccc(OCCCOc2ccc(C(=O)C(=O)O)cc2)cc1O [Example 273, 4-[3-(4-acetyl-3-hydroxyphenoxy)propoxy]-alpha-oxobenzeneacetic acid]	730	
O=C(O)C(=O)c1ccc(OCCOc2ccc3ccncc3c2)cc1 [Example 129, 4-[[2-(7-isoquinolyloxy)ethyl]oxy]-alpha-oxobenzeneacetic acid (5:2) molar hydrate]	440	
O=C(O)C(=O)c1ccc(OCCCn2c(=O)ccc3ccccc32)cc1 [Example 264, 4-[3-(1,2-dihydro-2-oxo-1-quinolinyl)propoxy]-alpha-oxobenzeneacetic acid]	12000	
O=C(O)C(=O)c1ccc(OCCCCc2cccnc2)cc1 [Example 123, alpha-oxo-4-[4-(3-pyridinyl)butoxy]benzeneacetic acid]	1500	
COc1cc(OCCOc2ccc(C(=O)C(=O)O)cc2)cc(OC)c1OC [Example 65, 4-[[2-(3,4,5-trimethoxyphenoxy)ethyl]oxy]-alpha-oxobenzeneacetic acid]	3000	
O=C(O)C(=O)c1ccc(OCCCCSc2ccc3ccccc3c2)cc1 [Example 92, 4-[[4-(2-naphthalenylthio)butyl]oxy]-alpha-oxobenzeneacetic acid]	3500	
O=C(O)C(=O)c1ccc(OCCOc2ccc(-c3ccccc3)cc2)cc1 [Example 57, 4-[[2-[4-(1,1'-biphenyl)oxy]ethyl]oxy]-alpha-oxobenzeneacetic acid]	5000	

Reference: patent publication US5344843A, “Cat-1 inhibitors, pharmaceutical compositions and methods of use” (Hoffman-La Roche Inc., priority 1992, dated 1994)
